# Legend:
# Assay in all cases: relative viability (nuclei count vs DMSO), 5 days (fraction); higher = more cells survive
# Quizartinib + Luminespib = compound: CC(C)(C)c1cc(NC(=O)Nc2ccc(-c3cn4c(n3)sc3cc(OCCN5CCOCC5)ccc34)cc2)no1 [Quizartinib] + CCNC(=O)c1noc(-c2cc(C(C)C)c(O)cc2O)c1-c1ccc(CN2CCOCC2)cc1 [Luminespib] (partner 0.01 µM)
# Procedure, shortened: (§1)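 Relative viability divides the nuclei count in treated wells by that in vehicle wells. Lung cancer cell lines were seeded in 1536-well plates, dosed by pin tool the next day, and fixed and stained after 5 days in one step with final 0.05% Triton X-100, 1% formaldehyde and 1 ug/ml Hoechst. Dosing was a single drug or a fixed anchor-drug dose plus five library-drug doses (not always all listed) in √10 steps, and values are medians of duplicate plates imaged at 4×.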
# Quizartinib + Olaparib = compound: CC(C)(C)c1cc(NC(=O)Nc2ccc(-c3cn4c(n3)sc3cc(OCCN5CCOCC5)ccc34)cc2)no1 [Quizartinib] + O=C(c1cc(Cc2n[nH]c(=O)c3ccccc23)ccc1F)N1CCN(C(=O)C2CC2)CC1 [Olaparib] (partner 8 µM)
# Procedure, shortened: as §1
# YM155 + Pictilisib = compound: COCC[n+]1c2c(n(Cc3cnccn3)c1C)C(=O)c1ccccc1C2=O [YM155] + CS(=O)(=O)N1CCN(Cc2cc3nc(-c4cccc5[nH]ncc45)nc(N4CCOCC4)c3s2)CC1 [Pictilisib] (partner 1 µM)
# Procedure, shortened: as §1
# YM155 + AZD7762 = compound: COCC[n+]1c2c(n(Cc3cnccn3)c1C)C(=O)c1ccccc1C2=O [YM155] + NC(=O)Nc1cc(-c2cccc(F)c2)sc1C(=O)N[C@H]1CCCNC1 [AZD7762] (partner 0.2 µM)
# Procedure, shortened: as §1
Cell Line,relative viability (Quizartinib + Luminespib; first compound 0.001 µM),relative viability (Quizartinib + Luminespib; first compound 0.003162 µM),relative viability (Quizartinib + Luminespib; first compound 0.01 µM),relative viability (Quizartinib + Luminespib; first compound 0.03162 µM),relative viability (Quizartinib + Luminespib; first compound 0.1 µM),relative viability (Quizartinib + Olaparib; first compound 0.001 µM),relative viability (Quizartinib + Olaparib; first compound 0.003162 µM),relative viability (Quizartinib + Olaparib; first compound 0.03162 µM),relative viability (Quizartinib + Olaparib; first compound 0.1 µM),relative viability (YM155 + Pictilisib; first compound 0.002 µM),relative viability (YM155 + Pictilisib; first compound 0.006325 µM),relative viability (YM155 + Pictilisib; first compound 0.02 µM),relative viability (YM155 + Pictilisib; first compound 0.06325 µM),relative viability (YM155 + AZD7762; first compound 0.002 µM),relative viability (YM155 + AZD7762; first compound 0.006325 µM),relative viability (YM155 + AZD7762; first compound 0.02 µM),relative viability (YM155 + AZD7762; first compound 0.06325 µM),relative viability (Quizartinib + Olaparib; first compound 0.01 µM)
HCC-827,0.647,0.487,0.606,0.401,0.738,0.653,0.556,0.616,0.697,1,0.763,1,1.09,0.224,0.293,0.239,0.241,
HOP-62,0.914,0.843,1.04,0.933,0.9,,0.322,0.619,0.449,0.79,0.63,0.818,0.749,0.484,0.427,0.902,0.43,0.54
LC-2-ad,0.938,1.07,0.945,,0.985,0.697,0.635,0.747,0.86,0.455,0.586,0.568,0.452,0.8,0.842,0.854,0.841,0.757
LCLC-97TM1,0.7,0.6,0.892,0.686,0.759,0.333,0.332,0.467,0.417,0.184,0.208,0.221,0.148,0.158,0.251,0.231,0.096,0.406
LCLC-103H,1,0.896,0.989,1.04,0.961,0.691,0.718,0.769,0.819,0.595,0.654,0.668,0.508,0.752,0.821,0.832,0.781,0.789
LK-2,0.162,,0.193,0.205,0.22,0.536,0.772,0.583,0.644,0.565,0.541,0.475,0.53,0.445,0.305,0.494,0.438,0.685
LOU-NH91,0.317,0.355,0.292,0.362,0.343,0.87,0.885,0.838,1.01,0.495,0.519,0.578,0.535,0.766,0.756,0.769,0.8,0.931
LU99A,0.268,0.216,0.234,0.257,0.237,0.253,0.251,0.276,0.238,0.354,0.335,0.315,0.284,0.553,0.27,0.412,0.28,0.293
LXF-289,0.63,0.666,0.778,0.699,0.794,0.901,0.987,1,0.992,0.772,0.771,0.752,0.549,1.1,1.07,1.07,0.937,1.16
NCI-H23,0.209,0.245,0.219,,0.185,0.273,0.269,0.279,0.264,0.518,0.459,0.484,0.222,,0.292,0.308,0.239,0.372
NCI-H322M,0.81,0.92,0.944,0.448,0.895,0.769,0.721,0.678,0.825,0.49,0.553,0.559,0.556,0.53,0.579,0.593,0.572,0.739
NCI-H358,0.224,0.359,0.309,0.475,0.228,0.548,0.6,,0.67,0.254,0.349,0.332,0.249,,0.523,0.437,0.281,0.585
NCI-H441,0.352,0.369,0.339,,0.362,0.441,0.558,0.434,0.683,0.539,0.527,0.47,0.381,0.947,1.23,1.09,0.246,0.646
NCI-H460,0.0338,0.0373,0.0292,0.0246,0.0321,,0.377,0.336,0.429,0.355,0.351,0.413,0.451,0.596,0.628,0.777,0.459,0.573
NCI-H596,0.922,0.884,1.02,0.852,0.888,0.728,0.636,0.658,0.717,,0.387,0.378,0.431,0.989,0.98,1.28,1.11,0.732
NCI-H647,0.174,0.155,0.213,0.327,0.189,0.622,0.507,0.499,0.585,0.352,0.345,0.399,0.213,0.429,0.509,0.407,0.0872,0.669
NCI-H650,0.7,0.762,0.91,0.68,0.718,0.373,0.334,0.4,0.474,0.88,0.843,0.953,0.683,0.835,0.958,1.08,0.776,0.44
NCI-H727,,0.443,0.41,0.665,0.309,0.66,0.678,0.708,0.769,0.397,0.533,0.446,0.375,0.768,0.676,0.684,0.703,0.843

Cell Line,relative viability (Quizartinib + Luminespib; first compound 0.001 µM),relative viability (Quizartinib + Luminespib; first compound 0.003162 µM),relative viability (Quizartinib + Luminespib; first compound 0.01 µM),relative viability (Quizartinib + Luminespib; first compound 0.03162 µM),relative viability (Quizartinib + Luminespib; first compound 0.1 µM),relative viability (Quizartinib + Olaparib; first compound 0.001 µM),relative viability (Quizartinib + Olaparib; first compound 0.003162 µM),relative viability (Quizartinib + Olaparib; first compound 0.03162 µM),relative viability (Quizartinib + Olaparib; first compound 0.1 µM),relative viability (YM155 + Pictilisib; first compound 0.002 µM),relative viability (YM155 + Pictilisib; first compound 0.006325 µM),relative viability (YM155 + Pictilisib; first compound 0.02 µM),relative viability (YM155 + Pictilisib; first compound 0.06325 µM),relative viability (YM155 + AZD7762; first compound 0.002 µM),relative viability (YM155 + AZD7762; first compound 0.006325 µM),relative viability (YM155 + AZD7762; first compound 0.02 µM),relative viability (YM155 + AZD7762; first compound 0.06325 µM),relative viability (Quizartinib + Olaparib; first compound 0.01 µM)
NCI-H838,0.203,0.207,0.329,0.281,0.234,0.641,0.683,0.678,0.361,0.386,0.521,0.536,0.299,0.936,0.904,0.932,0.726,0.77
NCI-H1355,0.814,0.689,0.721,0.68,0.725,0.659,0.737,0.748,0.679,0.403,0.484,0.462,0.514,0.74,0.749,0.781,0.798,0.761
NCI-H1395,0.68,0.52,0.841,0.71,0.69,0.476,0.455,0.444,0.512,0.587,0.546,0.622,0.673,0.351,0.41,0.4,0.434,0.489
NCI-H1437,1.01,1.07,1.09,0.782,0.982,0.613,0.587,0.584,0.468,0.417,0.404,0.468,0.507,1.11,1.08,1.1,0.926,0.627
NCI-H1651,0.811,0.794,0.913,0.599,0.92,0.163,0.174,0.186,0.177,0.542,0.589,0.556,0.473,0.44,0.433,0.533,0.487,0.192
NCI-H1666,0.977,1.05,1.02,0.789,1.03,0.704,0.713,0.678,0.853,0.455,,0.404,0.484,0.821,0.824,0.907,0.847,0.662
NCI-H1734,0.16,0.257,0.188,0.178,0.197,0.587,0.557,0.605,0.642,0.414,0.454,0.491,0.533,0.489,0.582,0.614,0.539,0.625
NCI-H1755,0.473,0.243,0.555,0.459,0.39,0.832,0.809,0.948,0.855,0.396,0.437,0.428,0.513,0.478,0.445,0.427,0.493,0.946
NCI-H1792,,0.484,0.452,0.321,0.444,0.443,0.381,0.483,0.312,0.331,0.289,0.318,0.267,0.613,0.574,0.648,0.604,0.54
NCI-H1793,0.161,0.171,0.467,0.174,0.159,0.765,0.684,0.808,0.835,,0.303,0.318,0.211,0.329,0.619,0.532,0.46,0.855
NCI-H1915,0.786,0.714,0.828,0.829,0.815,0.257,0.263,0.261,0.253,0.904,0.834,0.88,0.667,0.728,0.659,0.662,0.553,0.287
NCI-H1944,0.757,0.804,0.774,0.727,0.722,0.442,0.374,0.425,0.385,0.358,0.339,0.363,0.379,0.619,0.414,0.531,0.58,0.396
NCI-H1975,0.166,0.273,0.164,0.212,0.202,0.813,0.77,0.784,0.791,0.273,0.268,0.256,0.224,0.726,0.734,0.701,0.439,0.87
NCI-H1993,0.862,1.03,0.965,0.844,0.692,0.968,1.24,1.14,1.07,0.697,0.733,0.798,0.789,0.687,0.775,0.475,0.537,1.07
NCI-H2085,0.403,0.391,0.454,0.419,0.393,0.707,0.748,0.7,0.72,0.435,0.38,0.534,0.429,0.928,0.975,0.979,0.801,0.789
NCI-H2087,,0.206,0.174,0.177,0.156,0.654,0.578,0.587,0.583,0.868,0.762,0.931,0.642,1.18,1.29,1.26,1.04,0.619
NCI-H2126,0.844,0.828,0.798,,1.11,0.914,0.915,0.984,0.882,0.427,0.525,0.466,0.54,0.995,1.04,1.08,1.05,0.896
NCI-H2170,0.65,0.741,0.838,0.769,0.737,0.567,0.681,0.584,0.54,0.296,0.357,0.349,0.329,0.873,0.817,0.839,0.734,0.656

# Reference: the supplement of paper PMC10307832
